Tests used:
[1] = molecular target: dual ADP-ribosylated AR peptide 1, bis-ADP-ribosylated AR(280-294): CF-RPTPC(ADPr)APLAEC(ADPr)KGSL-OH; test: fluorescence polarisation; 50 nM CF-labelled AR peptide; recombinant protein or preassembled complex titrated (2500 nM or 2000 nM highest, 2-fold serial dilution); 20 mM Tris-HCl pH 7.5, 50 mM NaCl, 0.1 mM EDTA, 2 mM DTT; RT, 45 min; triplicate; fit for specific binding with Hill slope
DTX3L/PARP9 complex = molecular target: T1, DTX3L/PARP9 complex (Homo sapiens, UniProt Q8IXQ6+Q8TDB6); test: FP binding of fluorescent AR peptides to DTX3L/PARP9 complex; conditions: 50 nM peptide, RT 45 min, triplicate
T1 construct: made in house; host or cells: Sf21 insect cells
Experimental: Figure 2 Interaction of DTX3L/PARP9 and ADP-ribosylated AR peptides measured by FP assays. […] The reaction mixture was incubated at RT for 45 min, FP measured in a PHERAstar FSX Microplate Reader (BMG Labtech), and the binding curves were fitted for specific binding with GraphPad Prism v 9.3.1. The error bars represent the standard deviations.
Recombinant PARP9, DTX3L, and DTX3LΔN (N-terminal deletion mutant) were expressed in Sf21 insect cells and purified as previously described.[14] Complex formation of DTX3L/PARP9 or DTX3LΔN/PARP9 was carried out in an equal-molar ratio by incubating the proteins at >1 mg mL^–1 for each on ice for ∼4 h. Fluorescently labeled AR peptides (50 nM final concentration) 1–5 were mixed with various concentrations of the individual recombinant proteins or the protein complexes in a reaction buffer containing 20 mM Tris–HCl (pH 7.5), 50 mM NaCl, 0.1 mM EDTA, and 2 mM DTT, incubated at RT for 45 min and then measured in a PHERAstar FSX Microplate Reader (BMG Labtech). The assays were performed in triplicate. Competition assays were performed with 50 μM ADP-ribose. After correction for signals due to the fluorescent AR peptide alone, polarization values were plotted and analyzed with Prism (GraphPad) using nonlinear fit for specific binding with Hill slope.

Substance	Kd [1]	binding to DTX3L/PARP9 (in words) (DTX3L/PARP9 complex)
DTX3LΔN/PARP9 complex (from UniProt Q8TDB6 1-740; Q8IXQ6 1-854)	> 500 nM	
CF-Arg-Pro-Thr-Pro-Cys(5-O-adenosine-diphosphate-α-D-ribosyl)-Ala-Pro-Leu-Ala-OH [Peptide 3, CF-labeled mono-ADPr AR peptide]		near-background level of binding
CF-RPTPCAPLAECKGSL-OH [Peptide 6]		did not bind significantly
CF-Pro-Leu-Ala-Glu-Cys(5-O-adenosine-diphosphate-α-D-ribosyl)-Lys-Gly-Ser-Leu-OH [Peptide 2, CF-labeled mono-ADPr AR peptide]		near-background level of binding

— article PMC10660311 (ACS Chemical Biology, 2023)
